According to patent US9416144B2, “Benzoxazine oxazolidinone compound, preparation method and application thereof” (priority 2012, dated 2016):
≈ marks a conversion by molar mass, not a printed value.

What was measured:
Assay in all cases: In vitro antibacterial activity, MIC by agar double dilution method
Assay type in all cases: cell-based
[1] = system: Enterococcus (6 strains); conditions: clinical isolates, 35° C. 16 hrs
From the text: (§1) Experimental method: The agar double dilution method (Antimicrob. Agents and Chemother, 40, 1996, 720-726) was used to determine the minimum inhibitory concentration (MIC) of the series of compounds of the invention and the positive control drug linezolid for the test strains. The multipoint inoculation system (Denley A400) was employed to inoculate the bacteria on the agar plate surface with different concentrations of drugs; inoculation amount on each point was about 10^6 CFU/mL. The plates were incubated at 35° C. for 16 hrs before the results were observed. The lowest drug concentration contained in the Petri dish without bacterial growth was used as the minimum inhibitory concentration (MIC value) of the drug fir that strain.
(§2) Test strains: All the test strains were clinically isolated pathogens which were collected from the Nanjing region, and they were re-identified by routine methods before use. 31 strains of the clinically isolated pathogens were chosen, including 6 strains of Enterococcus, 5 Staphylococcus aureus sensitive strains; 5 Staphylococcus epidermidis sensitive strains; 6 Staphylococcus aureus resistant strains; 5 Staphylococcus epidermidis resistant strains; and 4 Streptococcus pneumoniae resistant strains.
(§3) Compounds to be tested were first added 2 ml of DMSO to help them fully dissolved, then added sterile double distilled water to the desired concentration; to all the Petri dish with added drug liquid were added 20 mL MIT medium which was heat-melted to be liquid-like, to make the final drug concentration in the Petri dish to be 64, 32, 16, 8, 4, 2, 1, 0.5, 0.25, 0.125, 0.0625, and 0.031 μg/mL.
(§4) The positive control group was LZ (linezolid, brand name Zyvox, approved by the FDA in 2000 to be firstly sold in the United States, which is the first and also the only one of oxazolidinone antibacterial drugs allowed to enter clinical application).

[2] = system: Streptococcus pneumoniae resistant strains (4 strains); conditions: clinical isolates
From the text: as §1, §2, §3, §4

[3] = system: Staphylococcus aureus sensitive strains (5 strains); conditions: clinical isolates
From the text: as §1, §2, §3, §4

[4] = system: Staphylococcus epidermidis resistant strains (5 strains); conditions: clinical isolates
From the text: as §1, §2, §3, §4

[5] = system: Staphylococcus aureus resistant strains (6 strains); conditions: clinical isolates
From the text: as §1, §2, §3, §4

[6] = system: Staphylococcus epidermidis sensitive strains (5 strains); conditions: clinical isolates
From the text: as §1, §2, §3, §4

Row | MIC [1] [µg/mL] | MIC [2] [µg/mL] | MIC [3] [µg/mL] | MIC [4] [µg/mL] | MIC [5] [µg/mL] | MIC [6] [µg/mL] | Compound
1 | 2 (≈ 5.43 µM) | 1 to 2 (≈ 2.71 to 5.43 µM) | 1 (≈ 2.71 µM) | 1 (≈ 2.71 µM) | 1 to 2 (≈ 2.71 to 5.43 µM) | 0.5 to 1 (≈ 1.36 to 2.71 µM) | O=C1O[C@@H](CO)[C@@H]2COc3cc(-c4ccc(C(O)C5CC5)nc4)ccc3N12 (stereo partly drawn) [Compound 6, (3R,3aS)-7-(6-(cyclopropyl(hydroxyl)methyl)pyridin-3-yl)-3-(hydroxyl-methyl)-3a,4-dihydrobenzo[b]oxazolo[3,4-d][1,4]oxazin-1(3H)-one]
2 | 4 (≈ 11.2 µM) | 2 to 4 (≈ 5.61 to 11.2 µM) | 1 to 4 (≈ 2.81 to 11.2 µM) | 2 (≈ 5.61 µM) | 1 to 4 (≈ 2.81 to 11.2 µM) | 1 to 4 (≈ 2.81 to 11.2 µM) | CC(C)(O)c1ccc(-c2ccc3c(c2)OC[C@H]2[C@H](CO)OC(=O)N32)cn1 [Compound 7, (3R,3aS)-3-(hydroxylmethyl)-7-(6-(2-hydroxylpropyl-2-yl)pyridin-3-yl)-3a,4-dihydrobenzo[b]oxazolo[3,4-d][1,4]oxazin-1(3H)-one]
3 | 2 to 4 (≈ 5.84 to 11.7 µM) | 2 to 4 (≈ 5.84 to 11.7 µM) | 1 to 2 (≈ 2.92 to 5.84 µM) | 1 to 2 (≈ 2.92 to 5.84 µM) | 1 to 2 (≈ 2.92 to 5.84 µM) | 1 (≈ 2.92 µM) | CC(O)c1ccc(-c2ccc3c(c2)OC[C@H]2[C@H](CO)OC(=O)N32)cn1 (stereo partly drawn) [Compound 8, (3R,3aS)-7-(6-(1-hydroxylethyl)pyridin-3-yl)-3-(hydroxylmethyl)-3a,4-dihydrobenzo[b]oxazolo[3,4-d][1,4]oxazin-1(3H)-one]
4 | 4 (≈ 12.2 µM) | 2 to 4 (≈ 6.09 to 12.2 µM) | 1 to 2 (≈ 3.05 to 6.09 µM) | 0.5 to 1 (≈ 1.52 to 3.05 µM) | 1 to 2 (≈ 3.05 to 6.09 µM) | 0.5 (≈ 1.52 µM) | O=C1O[C@@H](CO)[C@@H]2COc3cc(-c4ccc(CO)nc4)ccc3N12 [Compound 9, (3R,3aS)-3-(hydroxylmethyl)-7-(6-(hydroxylmethyl)pyridin-3-yl)-3a,4-dihydrobenzo[b]oxazolo[3,4-d][1,4]oxazin-1(3H)-one]
5 | 2 to 4 (≈ 5.23 to 10.5 µM) | 2 (≈ 5.23 µM) | 2 (≈ 5.23 µM) | 1 to 2 (≈ 2.61 to 5.23 µM) | 1 to 2 (≈ 2.61 to 5.23 µM) | 1 to 2 (≈ 2.61 to 5.23 µM) | O=C1O[C@@H](CO)[C@@H]2COc3cc(-c4ccc(C5(O)CCCC5)nc4)ccc3N12 [Compound 10, (3R,3aS)-7-(6-(1-hydroxylcyclopentyl)pyridin-3-yl)-3-(hydroxylmethyl)-3a,4-dihydrobenzo[b]oxazolo[3,4-d][1,4]oxazin-1(3H)-one]
6 | 2 to 4 (≈ 5.04 to 10.1 µM) | 4 (≈ 10.1 µM) | 2 to 4 (≈ 5.04 to 10.1 µM) | 4 (≈ 10.1 µM) | 4 to 8 (≈ 10.1 to 20.2 µM) | 2 to 4 (≈ 5.04 to 10.1 µM) | CN1CCN(c2ccc(-c3ccc4c(c3)OC[C@H]3[C@H](CO)OC(=O)N43)cn2)CC1 [Compound 12, (3R,3aS)-3-(hydroxylmethyl)7-(6-(4-methylpiperazin-1-yl)pyridin-3-yl)-3a,4-dihydrobenzo[b]oxazolo[3,4-d][1,4]oxazin-1(3H)-one]
7 | 1 to 2 (≈ 2.35 to 4.7 µM) | 2 (≈ 4.7 µM) | 1 to 2 (≈ 2.35 to 4.7 µM) | 2 to 4 (≈ 4.7 to 9.4 µM) | 1 to 2 (≈ 2.35 to 4.7 µM) | 1 to 2 (≈ 2.35 to 4.7 µM) | CC(C)N1CC(c2ccc(-c3ccc4c(c3)OC[C@H]3[C@H](CO)OC(=O)N43)cn2)OC1=O (stereo partly drawn) [Compound 15, (3R,3aS)-3-(hydroxylmethyl)-7-(6-(3-isopropyl-2-oxazolidin-5-yl)pyridin-3-yl)-3a,4-dihydrobenzo[b]oxazolo[3,4-d][1,4]oxazin-1(3H)-one]
8 | 1 to 2 (≈ 2.11 to 4.22 µM) | 2 (≈ 4.22 µM) | 1 to 2 (≈ 2.11 to 4.22 µM) | 2 to 4 (≈ 4.22 to 8.45 µM) | 1 to 2 (≈ 2.11 to 4.22 µM) | 1 to 2 (≈ 2.11 to 4.22 µM) | O=C1OC(c2ccc(-c3ccc4c(c3)OC[C@H]3[C@H](CO)OC(=O)N43)cn2)CN1Cc1ccccc1 (stereo partly drawn) [Compound 16, (3R,3aS)-7-(6-(3-benzyl-2-oxazolidin-5-yl)pyridin-3-yl)-3-(hydroxylmethyl)-3a,4-dihydrobenzo[b]oxazolo[3,4-d][1,4]oxazin-1(3H)-one]
9 | 4 (≈ 10.5 µM) | 1 to 2 (≈ 2.63 to 5.26 µM) | 1 to 4 (≈ 2.63 to 10.5 µM) | 1 to 2 (≈ 2.63 to 5.26 µM) | 1 to 2 (≈ 2.63 to 5.26 µM) | 1 to 2 (≈ 2.63 to 5.26 µM) | Cn1nnc(-c2ccc(-c3ccc4c(c3)OC[C@H]3[C@H](CO)OC(=O)N43)cn2)n1 [Compound 17, (3R,3aS)-3-(hydroxylmethyl)-7-(6-(2-methyl-2H-tetrazol-5-yl)pyridin-3-yl)-3a,4-dihydrobenzo[b]oxazolo[3,4-d][1,4]oxazin-1(3H)-one]
